Data published in paper PMC6199744, “Development of Chemical Proteomics for the Folateome and Analysis of the Kinetoplastid Folateome” (ACS Infectious Diseases, 2018).
Where two headings read alike, the source gives them in different places.

What was measured:
Type in all cases: binding
[1] = target: T1, HeLa cell extract proteins (Homo sapiens, UniProt O75352)
T1 construct: endogenous in cells; host or cells: HeLa cell extract
T1 sequence (O75352 1-247): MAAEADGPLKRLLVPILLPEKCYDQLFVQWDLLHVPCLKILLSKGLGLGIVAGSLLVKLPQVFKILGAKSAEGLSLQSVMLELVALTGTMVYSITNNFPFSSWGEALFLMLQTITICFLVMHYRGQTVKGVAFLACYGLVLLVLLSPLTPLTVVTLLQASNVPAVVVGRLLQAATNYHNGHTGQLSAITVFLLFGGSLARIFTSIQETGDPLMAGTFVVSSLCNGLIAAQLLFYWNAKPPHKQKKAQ

[2] = target: T2, HeLa cell extract proteins (Homo sapiens, UniProt P13807)
T2 construct: endogenous in cells; host or cells: HeLa cell extract
T2 sequence (P13807 1-737): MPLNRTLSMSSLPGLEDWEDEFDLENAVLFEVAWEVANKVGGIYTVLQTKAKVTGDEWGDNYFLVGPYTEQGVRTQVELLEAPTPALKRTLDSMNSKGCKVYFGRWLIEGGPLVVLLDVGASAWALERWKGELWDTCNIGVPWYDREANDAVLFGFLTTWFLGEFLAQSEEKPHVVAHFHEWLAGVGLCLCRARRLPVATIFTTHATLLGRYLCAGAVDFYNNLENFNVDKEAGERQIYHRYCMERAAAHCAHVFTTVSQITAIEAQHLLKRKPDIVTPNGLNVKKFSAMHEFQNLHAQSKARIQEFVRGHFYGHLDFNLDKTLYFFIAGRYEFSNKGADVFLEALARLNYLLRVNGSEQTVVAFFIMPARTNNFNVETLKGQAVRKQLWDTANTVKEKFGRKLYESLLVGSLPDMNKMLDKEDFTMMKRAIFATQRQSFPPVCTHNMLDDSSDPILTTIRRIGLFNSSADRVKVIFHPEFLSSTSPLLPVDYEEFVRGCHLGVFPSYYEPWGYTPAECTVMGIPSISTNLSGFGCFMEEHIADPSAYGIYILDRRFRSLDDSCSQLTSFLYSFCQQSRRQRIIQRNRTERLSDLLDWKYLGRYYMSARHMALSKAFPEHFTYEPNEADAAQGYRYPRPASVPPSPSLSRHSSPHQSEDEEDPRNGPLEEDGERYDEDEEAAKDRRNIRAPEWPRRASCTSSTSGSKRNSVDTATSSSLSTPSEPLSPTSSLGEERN

[3] = target: T3, HeLa cell extract proteins (Homo sapiens, UniProt P15104)
T3 construct: endogenous in cells; host or cells: HeLa cell extract
T3 sequence (P15104 whole entry): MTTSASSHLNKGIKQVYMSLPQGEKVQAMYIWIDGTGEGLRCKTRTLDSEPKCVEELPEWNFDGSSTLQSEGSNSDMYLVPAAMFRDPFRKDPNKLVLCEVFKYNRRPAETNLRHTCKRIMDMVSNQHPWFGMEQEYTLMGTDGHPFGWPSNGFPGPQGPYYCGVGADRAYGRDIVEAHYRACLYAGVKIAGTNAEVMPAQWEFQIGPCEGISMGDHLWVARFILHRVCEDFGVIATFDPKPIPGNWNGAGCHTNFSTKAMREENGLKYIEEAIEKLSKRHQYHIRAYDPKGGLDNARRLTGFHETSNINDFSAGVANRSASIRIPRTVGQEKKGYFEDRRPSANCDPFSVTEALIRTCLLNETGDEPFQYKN

[4] = target: T4, HeLa cell extract proteins (Homo sapiens, UniProt P33992)
T4 construct: endogenous in cells; host or cells: HeLa cell extract
T4 sequence (P33992 1-734): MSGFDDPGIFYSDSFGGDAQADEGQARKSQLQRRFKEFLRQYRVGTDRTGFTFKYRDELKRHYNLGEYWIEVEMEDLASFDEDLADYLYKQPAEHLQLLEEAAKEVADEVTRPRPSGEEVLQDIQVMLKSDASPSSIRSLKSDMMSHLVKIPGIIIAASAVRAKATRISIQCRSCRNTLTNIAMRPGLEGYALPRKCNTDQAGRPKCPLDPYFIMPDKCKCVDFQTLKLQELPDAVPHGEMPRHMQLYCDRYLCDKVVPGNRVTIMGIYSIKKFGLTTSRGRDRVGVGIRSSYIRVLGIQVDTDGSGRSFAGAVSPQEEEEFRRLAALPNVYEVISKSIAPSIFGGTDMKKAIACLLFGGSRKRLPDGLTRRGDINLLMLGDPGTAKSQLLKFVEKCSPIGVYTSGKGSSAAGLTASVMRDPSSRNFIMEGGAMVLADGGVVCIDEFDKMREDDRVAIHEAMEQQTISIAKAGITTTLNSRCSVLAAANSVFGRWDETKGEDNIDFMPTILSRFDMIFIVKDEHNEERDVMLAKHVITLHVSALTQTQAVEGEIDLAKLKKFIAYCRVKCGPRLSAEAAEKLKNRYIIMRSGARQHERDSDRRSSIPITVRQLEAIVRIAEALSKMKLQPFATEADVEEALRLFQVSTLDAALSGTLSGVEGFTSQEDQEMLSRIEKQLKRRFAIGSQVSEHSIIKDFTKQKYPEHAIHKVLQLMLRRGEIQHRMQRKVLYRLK

[5] = target: T5, HeLa cell extract proteins (Homo sapiens, UniProt P37802)
T5 construct: endogenous in cells; host or cells: HeLa cell extract
T5 sequence (P37802 whole entry): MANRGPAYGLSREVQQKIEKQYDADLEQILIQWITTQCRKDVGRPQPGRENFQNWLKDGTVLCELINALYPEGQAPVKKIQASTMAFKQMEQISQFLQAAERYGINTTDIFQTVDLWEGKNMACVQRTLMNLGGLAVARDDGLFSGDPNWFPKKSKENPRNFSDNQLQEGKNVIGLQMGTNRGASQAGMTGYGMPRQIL

[6] = target: T6, HeLa cell extract proteins (Homo sapiens, UniProt Q15084)
T6 construct: endogenous in cells; host or cells: HeLa cell extract
T6 sequence (Q15084 20-440): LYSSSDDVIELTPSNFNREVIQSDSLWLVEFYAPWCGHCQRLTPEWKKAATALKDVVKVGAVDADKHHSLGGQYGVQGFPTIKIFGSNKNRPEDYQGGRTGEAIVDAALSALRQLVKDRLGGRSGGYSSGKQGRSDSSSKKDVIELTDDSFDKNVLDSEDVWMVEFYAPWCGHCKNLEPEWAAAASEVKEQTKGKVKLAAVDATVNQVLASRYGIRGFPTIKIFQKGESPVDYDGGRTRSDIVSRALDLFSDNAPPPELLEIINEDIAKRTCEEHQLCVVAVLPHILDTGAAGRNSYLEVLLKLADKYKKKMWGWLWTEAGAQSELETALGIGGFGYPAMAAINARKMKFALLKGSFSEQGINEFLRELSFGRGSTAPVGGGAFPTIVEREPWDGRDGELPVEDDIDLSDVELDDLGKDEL

[7] = target: T7, HeLa cell extract proteins (Homo sapiens, UniProt Q9H0N5)
T7 construct: endogenous in cells; host or cells: HeLa cell extract
T7 sequence (Q9H0N5 whole entry): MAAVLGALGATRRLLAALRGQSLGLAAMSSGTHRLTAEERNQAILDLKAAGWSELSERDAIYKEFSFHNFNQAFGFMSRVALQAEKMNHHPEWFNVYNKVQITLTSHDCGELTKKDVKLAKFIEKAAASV

[8] = target: T8, HeLa cell extract proteins (Homo sapiens, UniProt Q9H974)
T8 construct: endogenous in cells; host or cells: HeLa cell extract
T8 sequence (Q9H974 whole entry): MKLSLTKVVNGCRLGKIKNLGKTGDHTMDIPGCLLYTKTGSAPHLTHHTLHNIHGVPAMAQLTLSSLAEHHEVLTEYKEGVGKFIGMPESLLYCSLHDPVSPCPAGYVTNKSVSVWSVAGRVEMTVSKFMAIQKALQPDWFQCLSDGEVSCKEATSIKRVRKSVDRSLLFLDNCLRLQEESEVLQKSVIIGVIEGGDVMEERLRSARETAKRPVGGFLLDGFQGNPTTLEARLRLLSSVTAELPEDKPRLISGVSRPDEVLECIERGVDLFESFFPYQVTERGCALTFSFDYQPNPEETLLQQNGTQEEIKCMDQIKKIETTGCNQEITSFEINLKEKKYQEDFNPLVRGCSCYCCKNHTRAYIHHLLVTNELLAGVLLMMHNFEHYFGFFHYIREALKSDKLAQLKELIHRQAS

| SMILES | fold changes relative to vehicle control ([1]; HeLa, protein MPDU1) | fold changes relative to vehicle control ([2]; HeLa, protein GYS1) | fold changes relative to vehicle control ([3]; HeLa, protein GLUL) | fold changes relative to vehicle control ([4]; HeLa, protein MCM5) | fold changes relative to vehicle control ([5]; HeLa, protein TAGLN2) | fold changes relative to vehicle control ([6]; HeLa, protein PDIA6) | fold changes relative to vehicle control ([7]; HeLa, captured protein PCBD2) | fold changes relative to vehicle control ([8]; protein QTRTD1, HeLa) | fold changes relative to vehicle control ([1]; protein MPDU1, HeLa) | fold changes relative to vehicle control ([2]; captured protein GYS1, HeLa) | fold changes relative to vehicle control ([3]; captured protein GLUL, HeLa) | fold changes relative to vehicle control ([4]; protein MCM5, HeLa) | fold changes relative to vehicle control ([5]; protein TAGLN2, HeLa) | fold changes relative to vehicle control ([6]; protein PDIA6, HeLa) | fold changes relative to vehicle control ([7]; captured protein PCBD2, HeLa) | fold changes relative to vehicle control ([8]; HeLa, protein QTRTD1) | other results |
| --- | --- | --- | --- | --- | --- | --- | --- | --- | --- | --- | --- | --- | --- | --- | --- | --- | --- |
| Nc1nc2c(c(=O)[nH]1)N(C=O)C(CNc1ccc(C(=O)N[C@@H](CCC(=O)O)C(=O)O)cc1)CN2 (some centres unmarked) [LEU, leucovorin] | 0.93 | 0.97 | 0.62 | 0.94 | 0.97 | 1.03 | 1.14 | 0.93 |  |  |  |  |  |  |  |  |  |
| NCCCNc1ccc(C(=O)NC(CCC(=O)O)C(=O)O)cc1 (centres unmarked) [compound 7] | 0.99 | 0.98 | 1.07 | 0.98 | 0.92 | 1 | 1.14 | 0.99 |  |  |  |  |  |  |  |  |  |
| CCCCCCOc1cccc(Cc2cnc(N)nc2N)c1 [compound 2] |  |  |  |  |  |  |  |  | 0.89 | 0.84 | 1.02 | 1.41 | 1.66 | 1.75 | 0.77 | 0.93 |  |
| CCCCCCOc1ccc(Cc2cnc(N)nc2N)cc1 [compound 1] |  |  |  |  |  |  |  |  | 1.04 | 0.9 | 0.97 | 1.04 | 1.17 | 1.09 | 0.88 | 0.46 |  |
| Nc1nc2cccc(-c3ccccc3)c2n1Cc1ccc(Cl)c(Cl)c1 [compound 3] |  |  |  |  |  |  |  |  | 1.05 | 0.93 | 0.88 | 0.93 | 0.85 | 0.89 | 1 | 0.99 |  |
| NCCOCCOCC(=O)Nc1nc2ncc(CNc3ccc(C(=O)NC(CCC(=O)O)C(=O)O)cc3)nc2c(=O)[nH]1 (centres unmarked) [compound 6] | 1.08 | 0.98 | 0.81 | 1.03 | 1.2 | 1.35 | 1.02 | 0.33 |  |  |  |  |  |  |  |  |  |
| Nc1nc2[nH]cc(CCc3ccc(C(=O)N[C@@H](CCC(=O)O)C(=O)O)cc3)c2c(=O)[nH]1 [PTX, pemetrexed] |  |  |  |  |  |  |  |  |  |  |  |  |  |  |  |  | fold changes relative to vehicle control [1]: 1; fold changes relative to vehicle control [2]: 0.94; fold changes relative to vehicle control [3]: 0.84; fold changes relative to vehicle control [4]: 1.12; fold changes relative to vehicle control [5]: 1.18; fold changes relative to vehicle control [6]: 1.12; fold changes relative to vehicle control [7]: 0.99; fold changes relative to vehicle control [8]: 0.86 |
